Source: PubChem BioAssay AID1549 (Sanford-Burnham Center for Chemical Genomics, 2009)
Active and inactive are the calls of the source. The rule behind the calls is not given here.

What follows are molecules tested against Influenza A virus M2 proton channel (A/TW/4845/1999 H1N1) (assay: NMR binding screen, influenza A virus M2 proton channel, Kd (AID 1549)). Conditions: M2 protein.

Structure (SMILES) | Kd
CC1=CC2C(CC1=O)C(C)=CCC2C(C)C (centres undefined) | > 4 mM (inactive)
Cc1cc[n+](-c2nc([O-])sc2C=O)cc1 | > 4 mM (inactive)
CC(=O)NC(NC(C)=O)c1ccccc1 | > 4 mM (inactive)
Cc1[nH]ccc2c1[nH]c1cc(=O)ccc12 | > 4 mM (inactive)
O=C(CC1SC(=O)NC1=O)Nc1ccccc1 (centres undefined) | > 4 mM (inactive)
O=c1[nH]cc(Nc2ccccc2)c(=O)[nH]1 | > 4 mM (inactive)
COc1ccc(Cl)cc1-c1n[nH]c(=S)n1C | > 4 mM (inactive)
CCC[C@@H]1CCCCN1 | > 4 mM (inactive)
COc1c(O)cccc1O | > 4 mM (inactive)
O=C(O)c1cccc2c1OCCCO2 | > 4 mM (inactive)
CCOc1cc(S(=O)(=O)N2CCOCC2)ccc1F | > 4 mM (inactive)
Cc1n[nH]c(=S)n(/N=C/c2cccs2)c1=O | > 4 mM (inactive)
O=C(COc1ccccc1O)NCCO | > 4 mM (inactive)
Cc1ccc(/C=N/n2c(C)nnc2C)cc1 | > 4 mM (inactive)
CN1CCC(NC(=O)c2cnccn2)CC1 | > 4 mM (inactive)
COc1cccc(N2CCN(C(=O)c3cccnc3)CC2)c1 | > 4 mM (inactive)
CCCn1c(S(=O)(=O)O)nc2ccccc21 | > 4 mM (inactive)
C(=N\c1nccs1)/c1cccnc1 | > 4 mM (inactive)
CC(=O)c1ccc(CC2SC(N)=NC2=O)cc1 (centres undefined) | > 4 mM (inactive)
CC1(C)CN=C(Nc2nc3ccccc3s2)S1 | > 4 mM (inactive)
Cc1cc2c(N)cccc2nn1 | > 4 mM (inactive)
CC(=O)CS(=O)(=O)c1ccccc1 | > 4 mM (inactive)
CC1=NN2C(=N)/C(=C\c3cccs3)C(=O)N=C2S1 | > 4 mM (inactive)

Structure (SMILES) | Kd
Cn1c(=O)c2c(ncn2C)n(C)c1=O | > 4 mM (inactive)
CCn1nccc1C(=O)Nc1ccc(Cl)cc1Cl | > 4 mM (inactive)
N#CCSc1nnc2ccc3ccccc3n12 | > 4 mM (inactive)
Nc1nc2[nH]c(=O)c(=O)[nH]c2c(=O)[nH]1 | > 4 mM (inactive)
Nc1cc(-c2ccco2)[nH]n1 | > 4 mM (inactive)
COc1ccc(-c2cc3nc4n(c(=O)c3s2)CCC4)cc1 | > 4 mM (inactive)
Cc1ccc(-c2cc(C(=O)N3CCCC3)no2)cc1 | > 4 mM (inactive)
S=C(c1ccc(N2CCOCC2)cc1)N1CCCCC1 | > 4 mM (inactive)
CCOC(=O)C1=C(C)N2CCN=C2S1 | > 4 mM (inactive)
O=c1oc(-c2ccccc2)nc2c1cnn2-c1ccccc1 | > 4 mM (inactive)
O=C(Nc1ccc(-c2nnco2)cc1)c1ccccc1 | > 4 mM (inactive)
O=C1NC(=S)N/C1=C\c1cccnc1 | > 4 mM (inactive)
C=CCc1ccc(O)c(OC)c1 | > 4 mM (inactive)
Cc1ccc(/C=C/C(=O)O)cc1S(=O)(=O)NCCO | > 4 mM (inactive)
CC(C)NC(=O)c1cc(=O)n(C)c(=O)n1C | > 4 mM (inactive)
Nc1ccccc1C(=O)CC(N)C(=O)O (centres undefined) | > 4 mM (inactive)
COCCn1c(C)cc(O)cc1=O | > 4 mM (inactive)
C/C=C(\C)C(=O)O[C@@H]1c2c(ccc3ccc(=O)oc23)OC(C)(C)[C@@H]1OC(C)=O | > 4 mM (inactive)
COC(=O)Nc1nc2c(s1)CCCC2 | > 4 mM (inactive)
CC(C)(C)c1cc(N)n[nH]1 | > 4 mM (inactive)
Cc1nn(C)c(C)c1NC(=S)NC1CCCC1 | > 4 mM (inactive)
NN1C(=O)CSC1=Nc1ccccc1 | > 4 mM (inactive)
COc1ccc(/C=C2\NC(=S)N(C)C2=O)cc1O | > 4 mM (inactive)

Structure (SMILES) | Kd
Nc1cccnc1Oc1ccc(F)cc1F | > 4 mM (inactive)
COC(=O)C1=C(C)N(Cc2ccco2)C(=O)C1 | > 4 mM (inactive)
[O-][n+]1c2ccccc2[n+]([O-])c2cc(O)ccc21 | > 4 mM (inactive)
CC(=O)Nc1cccc(-c2n[nH]c(=S)n2C)c1 | > 4 mM (inactive)
CN(C)Cc1c(N)cccc1O | > 4 mM (inactive)
c1cncc(C2CCCCN2)c1 (centres undefined) | > 4 mM (inactive)
S=C(NC1=NCCS1)Nc1ccccc1 | > 4 mM (inactive)
CC(C)(O)P(C)(=O)c1ccccc1 (centres undefined) | > 4 mM (inactive)
c1coc(-c2nc(-c3ccncc3)no2)c1 | > 4 mM (inactive)
O=C(/C=C/c1ccccc1)c1ccc(O)cc1 | > 4 mM (inactive)
O=C1N=c2ccccc2=C1c1sc(=S)[nH]c1O | > 4 mM (inactive)
O=C1C=C(Nc2ccccc2O)c2ccccc2C1=O | > 4 mM (inactive)
O=c1c(O)cc([C@H]2Oc3cc(O)cc(O)c3C[C@H]2O)cc2c([C@H]3Oc4cc(O)cc(O)c4C[C@H]3O)cc(O)c(O)c12 | > 4 mM (inactive)
Cc1cc(-c2ccc(Cl)cc2)n2nc(N)nc2n1 | > 4 mM (inactive)
Cn1cnnc1SCC(=O)Nc1ccccc1 | > 4 mM (inactive)
CCOc1ccc(C)cc1S(=O)(=O)n1ccc(C)n1 | > 4 mM (inactive)
CC(=O)Nc1ccc(S(N)(=O)=O)cc1 | > 4 mM (inactive)
O=C(O)CCC(=O)Nc1ccccn1 | > 4 mM (inactive)
O=C(O)CS(=O)(=O)c1ccccc1[N+](=O)[O-] | > 4 mM (inactive)
Cc1cc(C(=O)N2CCCCCC2)cs1 | > 4 mM (inactive)
Cc1nc2ccccc2c(=O)n1CCCO | > 4 mM (inactive)
Cc1ccc(C(=O)Nn2cnnc2)c(Cl)c1 | > 4 mM (inactive)
O=C(COc1ccccc1)N1CCc2ccccc2C1 | > 4 mM (inactive)

Structure (SMILES) | Kd
CC(=O)c1c(O)cc(O)cc1O | > 4 mM (inactive)
O=C1CCNc2cc3ccccc3cc21 | > 4 mM (inactive)
c1ccc2[nH]c(-c3cscn3)nc2c1 | > 4 mM (inactive)
CCOC(=O)c1[nH]cnc1C(=O)OC(C)C | > 4 mM (inactive)
CC1(C)CCC(C)(C)c2cc(C(=O)O)ccc21 | > 4 mM (inactive)
N#Cc1cn(CC(=O)N2CCCC2)c2ccccc12 | > 4 mM (inactive)
O=C(O)C1CCN(c2ccc(C(F)(F)F)cn2)CC1 | > 4 mM (inactive)
O=C(O)CSCc1ccc(Cl)cc1 | > 4 mM (inactive)
C[C@@H]1CC[C@@]2(OC1)O[C@H]1CC3C4CC[C@H]5C[C@@H](O)CC[C@]5(C)C4CC[C@]3(C)[C@H]1[C@@H]2C (some centres undefined) | > 4 mM (inactive)
O=C(Nc1nnc(-c2cccnc2)o1)c1ccccc1F | > 4 mM (inactive)
CC(CCC(=O)O)[C@H]1CCC2C3CC[C@@H]4CCCC[C@]4(C)C3CC[C@@]21C (some centres undefined) | > 4 mM (inactive)
c1ccc2nc3c(nc2c1)CCc1nonc1-3 | > 4 mM (inactive)
Nc1ccc(OC(F)(F)F)cc1 | > 4 mM (inactive)
COCC(=O)/C=C1\Sc2ccccc2N1C | > 4 mM (inactive)
O=C(O)c1cc(=O)c2cccc(O)c2[nH]1 | > 4 mM (inactive)
Nc1cc(=O)[nH]c(=S)n1-c1cccc(C(F)(F)F)c1 | > 4 mM (inactive)
COC(=O)C[C@H]1C(C)(C)C(OC(C)=O)[C@]2(O)C=C3C(CC[C@]4(C)C3CC(=O)O[C@H]4c3ccoc3)C1(C)C2=O (some centres undefined) | > 4 mM (inactive)
COc1ccc(C2CC(=O)c3ccc(OC)cc3O2)cc1 (centres undefined) | > 4 mM (inactive)
Cc1cc(C(=O)NCc2cccs2)c(C)o1 | > 4 mM (inactive)
CC1CN(Cc2ccccn2)CCC1=O (centres undefined) | > 4 mM (inactive)
